# Entries after “also recorded” stand apart in the source; their conditions may differ.
# Legend:
# Dnmt3a^R878H/+ cells = assay: Etanercept transplants (pan-TNFα blockade after competitive secondary transplant); format: in vivo, mouse
# Source text: FIGS. 7A-7H: TNFR1 is required for Dnmt3a^R878H/+ HSC self-renewal while TNFR2 regulates lymphoid cell production. (FIG. 7A) Schematic of experimental design to test competitive, serial transplant of Mx-Cre control, Dnmt3a^R878H/+(R878H/+), Dnmt3a^R878H/+ Tnfrsf1a^−/− (R878H/+; TNFR1KO) and Dnmt3a^R878H/+ Tnfrsf1b^−/− (R878H/+; TNFR2KO) in aged (>12 mo) recipient mice. (FIG. 7B) Frequency of donor cells in PB (left) and BM (right) of recipient mice at 20 weeks post-secondary transplant. Significance was calculated using Brown-Forsythe and Welch ANOVA with Welch's correction. (FIG. 7C) Representative flow cytometry plots showing B cell and myeloid cell frequencies in donor derived PB. (FIG. 7D) Frequency of B cells (left), T cells (center) and myeloid cells (right) in donor derived PB at 20 weeks post-secondary transplant. Significance was calculated using one-way ANOVA with Tukey's multiple comparisons test. (FIG. 7E) Experimental schematic of transplant experiment with etanercept treatment. (FIG. 7F) Frequency of control or R878H/+ donor cells in PB pre- and post-etanercept treatment. Significance was calculated using two-way ANOVA with Fisher's LSD. (FIG. 7G) Frequency of control or R878H/+ donor cells in BM post-etanercept or vehicle treatment. Significance was calculated using two-way ANOVA with Fisher's LSD. (FIG. 7H) Frequency of HSC, MPP^Mk/E, MPP^G/M, and MPP^Ly populations in control or R878H/+ BM. Significance was calculated using two-way ANOVA with Fisher's LSD. (FIGS. 7B and 7D) Dots represent individual recipient mice, boxes show 25 to 75th percentile, line is median, whiskers show min to max. (FIG. 7F) Dots represent mean across biological replicates (n=4). (FIGS. 7G and 7H) Bars represent mean+/− SEM (n=4). *P<0.05, **P<0.01, ***P<0.001, ****P<0.0001.
# TNFα signaling occurs through two distinct TNFα receptors, TNFR1 (Tnfrsf1a) and TNFR2 (Tnfrsf1b). Both TNFR1 and TNFR2 are expressed on HSC and MPP populations and are not altered in surface expression between control and Dnmt3a^R878H/+ mice (data not shown). To determine which of these receptors are responsible for TNFα-mediated selective advantage of Dnmt3a^R878H/+ HSCs and B lymphoid cell production, we crossed Dnmt3a^R878H/+ mice with Tnfrsf1a or Tnfrsf1b knockout mice (data not shown) and tested HSC function by competitive serial BM transplantation into aged recipients (FIG. 7A). […]
# 1×10^6 BM cells from 2-4-month-old Dnmt3a^+/+ Mx-Cre or Dnmt3a^fl-R878H/+ Mx-Cre donors were competitively transplanted with wild-type CD45.1+ CD45.2+ F1 BM cells in 2-4-month-old CD45.1+ lethally irradiated recipients. […] PB was monitored weekly and at 28 weeks post-transplant, bone marrow was harvested for analysis.
# STAT5 = assay: Phosphorylation in HSPCs in response to recombinant OSM stimulation; format: cell-based, mouse; details: recombinant OSM stimulation for 30 minutes; FIG. 10G
# Source text: (§1) FIGS. 10A-10G: OSM signaling is increased in Dnmt3a-mutant hematopoietic stem cells (HSCs) in an aged bone marrow microenvironment. (FIG. 10A) Experiment design. (FIG. 10B) Volcano plot of differentially expressed genes between Dnmt3a-mutant (R878H) vs. wild-type (+/+) HSCs in young recipients (left panel) and aged recipients (right panel). […] (FIG. 10C) Ingenuity Pathway Analysis prediction of upstream factors that would produce the differential gene expression pattern observed in aged recipients shown in FIG. 10B. (FIG. 10D) Gene set enrichment analysis of OSM signaling signature in Dnmt3a-mutant (R878H) vs. wild-type (+/+) HSCs specifically in aged recipient mice. (FIG. 10E) OSM levels in bone marrow fluid of young, middle-aged and old C57BL/6 wild-type mice assessed by ELISA. (FIG. 10F) Schematic of OSM-OSMR signaling pathway with differentially expressed genes in Dnmt3a-mutant vs. control HSCs colored in green (increased) or orange (decreased). (FIG. 10G) Phosphorylation of Stat3 (left panel) and Stat5 (right panel) in wild-type or Dnmt3a-mutant HSPCs in response to recombinant OSM stimulation for 30 minutes.
# (§2) To determine which factor(s) might be elevated in the aged bone marrow microenvironment that would impact Dnmt3a-mutant HSPCs, donor-derived hematopoietic stem cells (HSCs) were re-isolated from the experiment shown in FIG. 9A (design shown in FIG. 10A). […]
# STAT3 = assay: as above; format: cell-based, mouse; details: recombinant OSM stimulation for 30 minutes; FIG. 10G
# Source text: as §1, §2
# [1] = system: Dnmt3a-mutant HSCs vs wild-type HSCs; assay: Mixed HSC culture with or without recombinant OSM, then transplant and engraftment; format: in vivo, mouse; details: then transplant, FIGS. 11B-11C
# Source text: (FIG. 11A) Experiment design. Contribution of wild-type (WT F1) and competitor Dnmt3a-mutant (R878H/+) cells to peripheral blood (FIG. 11B) and bone marrow (FIG. 11C) of recipient mice after culture with or without recombinant OSM.
# Next, to determine if OSM stimulation has a differential functional effect on Dnmt3a-mutant vs. control HSCs, we established mixed cultures of purified control and Dnmt3a-mutant HSCs in culture conditions that promote HSC self-renewal and expansion. To test HSC function, we transplanted cells at the end of the culture period into recipient mice and measured their engraftment capacity (FIG. 11A). We find that in absence of OSM there is similar or equal engraftment of wild-type and Dnmt3a-mutant competitor cells in recipient mice (FIGS. 11B-11C). […] This finding supports that OSM is a major factor causing clonal hematopoiesis.
# [2] = system: Dnmt3a-mutant (D3a) hematopoietic stem cells; assay: In vivo MitoQ treatment after transplant into aged recipient mice; parameters: species or system mouse; details: in vivo MitoQ vs vehicle (PBS) after transplant into aged recipient mice, FIG. 4
# Protocol: Frequency of donor-derived cells produced from wild-type (MxCre) control or Dnmt3a-mutant (D3a) hematopoietic stem cells post-transplantation and in vivo treatment with MitoQ or vehicle (PBS).
# (§3) To evaluate the extent to which targeting defects in mitochondrial metabolism might improve wild-type HSC function and thus reduce the selective advantage of Dnmt3a-mutant HSCs, cells were treated with the mitochondrially targeted antioxidant mitoquinol (MitoQ) in vitro and in vivo. […] Treatment with MitoQ or other methods to improve mitochondrial metabolism are attractive targets to consider in the treatment of clonal hematopoiesis and prevention of leukemia.
# [3] = system: Dnmt3a-mutant (D3a) hematopoietic stem and progenitor cells; assay: Myeloid colony formation in media containing MitoQ or vehicle (DMSO); format: cell-based, mouse; details: in vitro, MitoQ vs vehicle (DMSO), FIG. 3
# Protocol: (§4) Number of myeloid colonies produced from wild-type MxCre control or Dnmt3a-mutant (D3a) hematopoietic stem and progenitor cells in media containing MitoQ or vehicle (DMSO).
# as §3
# [4] = system: wild-type MxCre control hematopoietic stem and progenitor cells; assay: as above; format: cell-based, mouse; details: in vitro, MitoQ vs vehicle (DMSO); FIG. 3
# Protocol: as §4, §3
# [5] = etanercept 25 mg/kg IP twice per week for four weeks vs vehicle, FIG. 7H
substance,measurement,setting,value
Etanercept,Frequency of R878H/+ donor cells in BM (BM engraftment),"Dnmt3a^R878H/+ cells; etanercept 25 mg/kg IP twice per week for four weeks vs vehicle, FIG. 7G",trended toward reduction in BM engraftment
same,"Frequency of Dnmt3a^R878H/+ HSC, MPP^Mk/E and MPP^Ly populations in BM",Dnmt3a^R878H/+ cells; [5],reduced the frequency
same,Frequency of Dnmt3a^R878H/+ myeloid-primed multipotent progenitors MPP^G/M in BM,Dnmt3a^R878H/+ cells; [5],trend toward increase
same,Frequency of R878H/+ donor cells in PB (competitive PB advantage),"Dnmt3a^R878H/+ cells; etanercept 25 mg/kg IP twice per week for four weeks, pre- vs post-treatment, FIG. 7F",reduced the competitive PB advantage
OSM: recombinant pro-inflammatory cytokine Oncostatin M used to stimulate HSCs/HSPCs,Phosphorylation of STAT5 in HSPCs,STAT5,phosphorylation of STAT5 was not seen
same,Phosphorylation of STAT3 in Dnmt3a-mutant vs control HSPCs,STAT3,greater phosphorylation of STAT3; also recorded: greater downstream Stat3 phosphorylation compared to control HSCs
same,Engraftment of Dnmt3a-mutant vs wild-type cells in peripheral blood and bone marrow of recipient mice,[1],favors growth of Dnmt3a-mutant hematopoietic stem cells (HSCs); also recorded: greater multi-lineage engraftment capacity in recipient mice compared to OSM-treated wild-type HSCs
same,Engraftment of Dnmt3a-mutant vs wild-type cells in peripheral blood and bone marrow of recipient mice,[1]; listed as recombinant OSM,entirely favors growth of Dnmt3a-mutant HSCs over wild-type cells
mitoquinol,Contribution of Dnmt3a-mutant cells to hematopoiesis (frequency of donor-derived cells),[2],reduced contribution of Dnmt3a-mutant cells to hematopoiesis; also recorded: decreases contribution of Dnmt3a-mutant cells to mature hematopoiesis in vivo
same,Contribution of Dnmt3a-mutant cells to hematopoiesis (frequency of donor-derived cells),[2]; listed as MitoQ®,impaired differentiation and mature cell production from Dnmt3a-mutant HSCs
same,Number of myeloid colonies / progeny produced from Dnmt3a-mutant cells,[3],reduce number of progeny produced from Dnmt3a-mutant cells; also recorded: decreases myeloid differentiation of hematopoietic stem and progenitor cells in vitro
same,Number of myeloid colonies / progeny produced from Dnmt3a-mutant cells,[3]; listed as MitoQ®,reduced myeloid differentiation of Dnmt3a-mutant HSCs
same,Myeloid differentiation of wild-type control cells,[4],did not impact differentiation of wild-type control cells
